Test [1] addresses T1, Human cytomegalovirus DNA polymerase (Human cytomegalovirus, UniProt P08546).
T1 construct: made in house; host or cells: SF21 insect cells (baculovirus vector)
The test can be described thus: HCMV polymerase assay (AlphaLISA, IC50). The class given is biochemical. The following applies: polymerase assay of Example 190. In a few lines: (§1)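 Baculovirus-expressed polymerase (HCMV 0.2 nM, VZV 0.4 nM final) preincubated 30 min at room temperature with compound in pH 7.5 HEPES buffer; reaction started with 1.6 nM DIG-primer/template and nM dNTPs including biotin-dUTP, run 60 min at 37° C. Incorporation detected by AlphaLISA; IC50 from 4-parameter fit.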

For test [2], the target named is T2, varicella zoster virus DNA polymerase (Varicella-zoster virus, UniProt P09252).
T2 construct: made in house; host or cells: SF21 insect cells (baculovirus vector)
Kind of test: VZV polymerase assay (AlphaLISA, IC50). The class given is biochemical. To be noted: polymerase assay of Example 190. In a few lines: as §1

For test [3], the system named is HCMV Strain AD169 in MRC-5 cells. The test can be described thus: Viral qPCR assay HCMV (V0/V1, V2/V3), EC50. The class given is cell-based. The following applies: read-out: HCMV Cell (EC50). In a few lines:
(§2)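 Infected cells added to compounds (10-point 3-fold series), ~72 h at 37 °C, then lysed; viral genomes by TaqMan qPCR against plasmid standard, normalized to PPIA in V0/V1 only, EC50 from 4-parameter fit. HCMV AD169, 0.05-0.1 pfu/cell, ± 50% FBS; VZV 0.04-0.1 pfu/cell; HSV-1 F 0.0005-0.004 pfu/cell.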

The test system of test [4] is VZV in MeWo or MRC5 cells. Kind of test: Viral qPCR assay VZV (V0/V1, V2/V3), EC50. The class given is cell-based. The following applies: 10%. In a few lines:
as §2

For test [5], the system named is HSV-1 Strain F in Vero or MRC5 cells. Kind of test: Viral qPCR assay HSV-1 (V0/V1, V2/V3), EC50. The class given is cell-based. The following applies: 10%. In a few lines: as §2
The mark [6] stands for this setting: Human betaherpesvirus 5, AD169, MRC5, viral qPCR assay of Example 191.
Setting [7] is: Human alphaherpesvirus 3, MeWo, MEWO cells, read-out: VZV Cell (EC50) MEWO 10%.
The mark [8] stands for this setting: Human alphaherpesvirus 1, Vero, VERO cells, read-out: HSV1 Cell (EC50) VERO 10%.
Where [9] appears, read: Human alphaherpesvirus 3, MRC5, MRC5 cells, read-out: VZV Cell (EC50) MRC5 10%.
The mark [10] stands for this setting: Human alphaherpesvirus 1, MRC5, MRC5 cells, read-out: HSV1 Cell (EC50) MRC5 10%.

Each structure is given as a SMILES string. Read-outs that look alike come from different tables or passages of the source.

T1 sequence (P08546 whole entry): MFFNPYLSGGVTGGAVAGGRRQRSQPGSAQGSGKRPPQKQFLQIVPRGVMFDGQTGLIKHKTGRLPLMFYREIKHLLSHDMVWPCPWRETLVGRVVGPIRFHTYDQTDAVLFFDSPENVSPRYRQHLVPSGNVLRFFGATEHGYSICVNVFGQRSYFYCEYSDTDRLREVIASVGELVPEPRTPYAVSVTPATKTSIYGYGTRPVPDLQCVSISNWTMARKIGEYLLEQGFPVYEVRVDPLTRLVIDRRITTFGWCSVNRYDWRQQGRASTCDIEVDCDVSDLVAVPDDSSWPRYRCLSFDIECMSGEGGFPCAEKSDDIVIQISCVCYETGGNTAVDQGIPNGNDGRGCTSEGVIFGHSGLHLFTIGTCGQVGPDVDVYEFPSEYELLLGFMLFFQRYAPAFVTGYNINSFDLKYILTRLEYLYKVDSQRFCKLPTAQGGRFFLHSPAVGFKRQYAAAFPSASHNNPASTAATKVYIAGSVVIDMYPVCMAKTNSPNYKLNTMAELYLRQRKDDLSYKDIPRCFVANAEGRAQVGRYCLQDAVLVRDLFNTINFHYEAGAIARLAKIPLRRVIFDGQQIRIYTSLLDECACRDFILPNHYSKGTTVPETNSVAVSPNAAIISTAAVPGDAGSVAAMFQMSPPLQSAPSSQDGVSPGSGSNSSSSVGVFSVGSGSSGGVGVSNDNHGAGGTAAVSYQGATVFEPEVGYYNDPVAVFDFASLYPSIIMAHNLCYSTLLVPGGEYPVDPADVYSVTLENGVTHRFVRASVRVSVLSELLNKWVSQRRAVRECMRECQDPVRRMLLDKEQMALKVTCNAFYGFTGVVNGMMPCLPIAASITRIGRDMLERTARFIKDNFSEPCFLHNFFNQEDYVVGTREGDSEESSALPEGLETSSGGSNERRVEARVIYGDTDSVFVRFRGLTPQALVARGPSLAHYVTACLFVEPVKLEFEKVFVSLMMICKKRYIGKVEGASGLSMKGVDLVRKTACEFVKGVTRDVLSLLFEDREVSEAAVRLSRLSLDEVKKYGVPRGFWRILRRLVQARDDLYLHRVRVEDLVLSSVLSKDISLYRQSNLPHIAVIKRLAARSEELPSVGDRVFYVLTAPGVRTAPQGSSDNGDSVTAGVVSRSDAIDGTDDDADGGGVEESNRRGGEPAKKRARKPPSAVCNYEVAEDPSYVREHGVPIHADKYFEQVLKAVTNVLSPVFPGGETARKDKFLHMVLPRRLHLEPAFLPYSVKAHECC
T2 sequence (P09252 whole entry): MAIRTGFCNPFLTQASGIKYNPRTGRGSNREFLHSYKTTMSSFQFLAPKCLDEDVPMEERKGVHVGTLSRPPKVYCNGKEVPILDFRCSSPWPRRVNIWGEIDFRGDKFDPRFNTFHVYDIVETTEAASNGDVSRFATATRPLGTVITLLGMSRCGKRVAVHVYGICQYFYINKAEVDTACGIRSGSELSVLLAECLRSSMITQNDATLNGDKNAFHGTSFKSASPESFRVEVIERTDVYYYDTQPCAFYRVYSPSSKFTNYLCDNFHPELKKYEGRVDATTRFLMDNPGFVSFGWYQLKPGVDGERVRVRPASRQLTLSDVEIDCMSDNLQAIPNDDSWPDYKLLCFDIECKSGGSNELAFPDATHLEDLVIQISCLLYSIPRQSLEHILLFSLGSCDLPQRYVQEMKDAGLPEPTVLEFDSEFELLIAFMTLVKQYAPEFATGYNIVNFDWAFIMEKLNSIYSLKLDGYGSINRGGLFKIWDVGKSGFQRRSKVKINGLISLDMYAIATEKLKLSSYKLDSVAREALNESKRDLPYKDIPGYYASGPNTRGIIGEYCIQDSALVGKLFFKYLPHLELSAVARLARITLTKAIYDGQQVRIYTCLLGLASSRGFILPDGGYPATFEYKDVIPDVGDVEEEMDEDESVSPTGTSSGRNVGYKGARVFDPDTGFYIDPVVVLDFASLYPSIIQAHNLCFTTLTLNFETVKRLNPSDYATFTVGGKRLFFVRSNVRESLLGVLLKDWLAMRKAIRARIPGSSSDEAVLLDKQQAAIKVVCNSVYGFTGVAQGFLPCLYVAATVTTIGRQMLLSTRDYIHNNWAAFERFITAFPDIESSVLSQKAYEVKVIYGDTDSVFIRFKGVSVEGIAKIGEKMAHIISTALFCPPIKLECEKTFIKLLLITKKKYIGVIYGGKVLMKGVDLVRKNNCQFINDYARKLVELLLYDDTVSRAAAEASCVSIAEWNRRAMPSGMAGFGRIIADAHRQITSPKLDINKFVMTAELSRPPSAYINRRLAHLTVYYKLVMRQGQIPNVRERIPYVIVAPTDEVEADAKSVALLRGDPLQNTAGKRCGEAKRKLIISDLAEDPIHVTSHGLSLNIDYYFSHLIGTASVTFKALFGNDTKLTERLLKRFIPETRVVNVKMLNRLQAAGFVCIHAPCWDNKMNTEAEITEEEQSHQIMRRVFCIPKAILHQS

For the compound `O=C(NCc1ccc(Cl)cc1)c1cc(O[C@H]2CCN3C(=O)CCC[C@@H]3C2)c(-c2cnn(C(F)F)c2)cn1` (single isomer, unassigned) [Compound 161-1], the IC50 was 130 nM in test [1] and 47.3 nM in test [2]. Further, the EC50 was 1330 nM in test [3] (setting [6]), 210 nM in test [4] (setting [7]) and 461 nM in test [5] (setting [8]).
As for `O=C(NCc1ccc(Cl)cc1)c1cc(O[C@H]2CCN3C(=O)OC[C@@H]3C2)c(N2CC(O)C2)cn1` [Compound 122], the results for the half-maximal inhibitory concentration (IC50) in test [1] and in test [2] were 19.2 nM and 9.04 nM, respectively. For the same compound, the EC50 in test [3] (setting [6]) is 121 nM; in test [4] (setting [9]), 582 nM; in test [5] (setting [10]), 520 nM.
`O=C(NCc1ccc(Cl)cc1)c1cc(O[C@H]2CCN3C(=O)OC[C@@H]3C2)c(CCO)cn1` [Compound 112]: the IC50 was determined as 54.4 nM in test [1] and 31.1 nM in test [2]. Moreover, the results for the EC50 in test [3] (setting [6]), in test [4] (setting [7]) and in test [5] (setting [8]) were 635 nM, 482 nM and 3260 nM, respectively.
For `CC(C)(C)n1cc(-c2cnc(C(=O)NCc3ccc(Cl)cc3)cc2O[C@H]2CCN3C(=O)OC[C@@H]3C2)cn1` (racemic) [Compound 12] the same measures were 70.5 nM, 69.6 nM, 1160 nM, 977 nM and 882 nM.
For the compound `Cn1cc(-c2cnc(C(=O)NCc3ccc(Cl)cc3F)cc2O[C@H]2CCN3C(=O)OC[C@@H]3C2)cn1` [Compound 97], the IC50 in test [1] was 14 nM; in test [2] it was 15.7 nM. Further, the results for the EC50 in test [3] (setting [6]), in test [4] (setting [7]) and in test [5] (setting [8]) were 101 nM, 95.5 nM and 191 nM, respectively.
Turning to `CC(C)(O)C1CCN(c2cnc(C(=O)NCc3ccc(Cl)cc3)cc2O[C@H]2CCN3C(=O)OC[C@@H]3C2)C1` (single isomer, unassigned) [Compound 117-2], the concentration for half-maximal inhibition (IC50) turned out to be 12.1 nM in test [1] and 3.05 nM in test [2]. Moreover, the 50% effective concentration (EC50) in test [3] (viral qPCR assay of Example 191) turned out to be 211 nM; in test [4] (MRC5 cells, read-out: VZV Cell (EC50) MRC5 10%), 9100 nM; in test [5] (MRC5 cells, read-out: HSV1 Cell (EC50) MRC5 10%), 4780 nM.
For the compound `CC(=O)N1CCC(Oc2cc(C(=O)NCc3ccc(Cl)cc3)ncc2-c2cnc(C)s2)CC1` [Compound 43], the IC50 in test [1] came out at 24.9 nM; in test [2] it was 14.6 nM. Moreover, the figures for the EC50 in test [3] (setting [6]), in test [4] (setting [9]) and in test [5] (setting [10]) were 179 nM, 140 nM and 106 nM, respectively.
For `O=C(NCc1ccc(Cl)cn1)c1cc(O[C@H]2CCN3C(=O)OC[C@@H]3C2)c(-c2cnn(C(F)F)c2)cn1` [Compound 90], the IC50 is 189 nM in test [1] and 105 nM in test [2]. Besides, the EC50 amounted to 1040 nM in test [3] (setting [6]); 5990 nM in test [4] (setting [9]); 737 nM in test [4] (setting [7]); 2550 nM in test [5] (setting [10]); 853 nM in test [5] (setting [8]).
As to `COCCn1ccc(-c2cnc(C(=O)NCc3ccc(Cl)cc3)cc2O[C@H]2CCN3C(=O)OC[C@@H]3C2)n1` [Compound 28], the IC50 is 14.7 nM in test [1] and 12.7 nM in test [2]. In addition, the EC50 is 325 nM in test [3] (setting [6]), 422 nM in test [4] (setting [7]) and 327 nM in test [5] (setting [8]).
As for `CC(=O)N1CCC(Oc2cc(C(=O)NCc3ccc(Cl)cc3)ncc2-c2nnc(C3CC3)s2)CC1` [Compound 57], the IC50 in test [1] was determined as 86.9 nM; in test [2], 12.7 nM. Also, the EC50 in test [3] (setting [6]) was determined as 133 nM; in test [4] (setting [9]), 203 nM; in test [5] (setting [10]), 110 nM.
As to `O=C(NCc1ccc(Cl)nc1)c1cc(O[C@H]2CCN3C(=O)OC[C@@H]3C2)c(-c2cnn(C(F)F)c2)cn1` [Compound 86], the IC50 in test [1] is 189 nM; in test [2] it was 20.6 nM. For the same compound, the EC50 in test [3] (setting [6]) was 754 nM; in test [4] (setting [7]), 825 nM; in test [5] (setting [8]) it was 1450 nM.
Take `CCc1noc(-c2cnc(C(=O)NCc3ccc(Cl)cc3)cc2O[C@H]2CCN3C(=O)OC[C@@H]3C2)n1` [Compound 149]: the results for the IC50 in test [1] and in test [2] were 16.4 nM and 6.31 nM, respectively. Moreover, the EC50 in test [3] (setting [6]) worked out at 124 nM; in test [4] (setting [9]), 269 nM; in test [5] (setting [10]) it was 125 nM.
As for `CC(=O)N1CCC(Oc2cc(C(=O)NCc3ccc(Cl)cc3)ncc2-c2cc[nH]n2)CC1` [Compound 64], the values for the IC50 in test [1] and in test [2] were 164 nM and 65.3 nM, respectively. For the same compound, the figures for the EC50 in test [3] (setting [6]), in test [4] (setting [7]) and in test [5] (setting [8]) were 1020 nM, 440 nM and 1170 nM, respectively.
For the compound `O=C(NCc1ccc(Cl)cc1)c1cc(O[C@H]2CCN3C(=O)OC[C@@H]3C2)c(C2CC2O)cn1` (stereo partly shown) [Compound 154], the results for the IC50 in test [1] and in test [2] were 36.7 nM and 11.4 nM, respectively. Moreover, the EC50 in test [3] (setting [6]) is 255 nM; in test [4] (setting [9]) it was 896 nM; in test [5] (setting [10]), 662 nM.
As to `CC(=O)N1CCC(Oc2cc(C(=O)NCc3ccc(Cl)cc3)ncc2/C=C\c2ccccn2)CC1` [Compound 77], the IC50 in test [1] worked out at 103 nM; in test [2], 37.2 nM. The EC50 is 825 nM in test [3] (setting [6]), 230 nM in test [4] (setting [7]) and 122 nM in test [5] (setting [8]).
In the case of `C[C@H](NC(=O)c1cc(O[C@H]2CCN3C(=O)OC[C@@H]3C2)c(-c2cnn(C(F)F)c2)cn1)c1ccc(Cl)cc1` [Compound 81], the IC50 in test [1] was determined as 14.3 nM; in test [2], 11.9 nM. The EC50 turned out to be 312 nM in test [3] (setting [6]), 307 nM in test [4] (setting [9]) and 153 nM in test [5] (setting [10]).
Regarding `O=C(NCc1ccc(Cl)cc1)c1cc(O[C@H]2CCN3C(=O)OC[C@@H]3C2)c(CCn2cccn2)cn1` [Compound 115], the IC50 in test [1] was 173 nM; in test [2], 132 nM. Moreover, the EC50 turned out to be 1720 nM in test [3] (setting [6]), 900 nM in test [4] (setting [7]) and 1280 nM in test [5] (setting [8]).
Turning to `CC(=O)N1CCC(Oc2cc(C(=O)NCc3ccc(Cl)cc3)ncc2-c2ccns2)CC1` [Compound 46], the values for the IC50 in test [1] and in test [2] were 20.8 nM and 3.98 nM, respectively. For the same compound, the EC50 in test [3] (setting [6]) came to 148 nM; in test [4] (setting [9]) it was 113 nM; in test [5] (setting [10]), 92.1 nM.
For `C[C@@H]1CN(C)CCN1c1cc(C(=O)NCc2ccc(Cl)cc2)ncc1C#N` [Compound 175] the same measures were 48.2 nM, 76.9 nM, 1220 nM, 3320 nM and 3390 nM.
On to `CC(=O)N1CCC(Oc2cc(C(=O)NCc3ccc(Cl)cc3)ncc2-c2nnc(C)s2)CC1` [Compound 54], for which the IC50 stood at 61.6 nM in test [1] and 14.9 nM in test [2]. The EC50 is 768 nM in test [3] (setting [6]), 181 nM in test [4] (setting [9]) and 241 nM in test [5] (setting [10]).
With `Cc1ccn(-c2cnc(C(=O)NCc3ccc(Cl)cc3)cc2O[C@H]2CCN3C(=O)OC[C@@H]3C2)n1` [Compound 106], the IC50 in test [1] amounted to 224 nM; in test [2], 197 nM. In addition, the EC50 turned out to be 923 nM in test [3] (setting [6]), 288 nM in test [4] (setting [7]) and 575 nM in test [5] (setting [8]).
`Cc1c[n+]([O-])c(C(=O)NCc2ccc(Cl)cc2)cc1O[C@H]1CCN2C(=O)OC[C@@H]2C1` [Compound 130]: the IC50 in test [1] came out at 89.1 nM; in test [2] it was 43.4 nM. The EC50 in test [3] (setting [6]) amounted to 557 nM; in test [4] (setting [7]), 252 nM; in test [5] (setting [8]), 496 nM.
`Cc1cnc(-c2cnc(C(=O)NCc3ccc(Cl)cc3)cc2O[C@H]2CCN3C(=O)OC[C@@H]3C2)s1` [Compound 41]: the results for the IC50 in test [1] and in test [2] were 5 nM and 3.88 nM, respectively. Further, the EC50 in test [3] (setting [6]) is 89.9 nM; in test [4] (setting [9]), 97.4 nM; in test [4] (setting [7]), 70.8 nM; in test [5] (setting [10]), 39 nM; in test [5] (setting [8]), 12.2 nM.
`CC(=O)N1CCC(Oc2cc(C(=O)NCc3ccc(Cl)cc3)ncc2-c2ncc(C)s2)CC1` [Compound 63]: the IC50 in test [1] is 13.5 nM; in test [2] it was 11.1 nM. The EC50 in test [3] (setting [6]) stood at 246 nM; in test [4] (setting [9]) it was 215 nM; in test [5] (setting [10]), 310 nM; in test [5] (setting [8]) it was 34.2 nM.
In the case of `O=C(NCc1ccc(Cl)cc1)c1cc(O[C@H]2CCN3C(=O)NC[C@@H]3C2)c(-c2cnn(C(F)F)c2)cn1` (racemic) [Compound 163], the IC50 in test [1] was found to be 203 nM; in test [2], 105 nM. The EC50 in test [3] (setting [6]) came to 2730 nM; in test [4] (setting [7]), 588 nM; in test [5] (setting [8]) it was 762 nM.
For `CC(C)(O)Cc1cnc(C(=O)NCc2ccc(Cl)cc2)cc1O[C@H]1CCN2C(=O)OC[C@@H]2C1` [Compound 111], the IC50 came to 13.6 nM in test [1] and 13.8 nM in test [2]. Also, the EC50 was 396 nM in test [3] (setting [6]), 1160 nM in test [4] (setting [9]), 1120 nM in test [5] (setting [10]) and 719 nM in test [5] (setting [8]).
